Test results published in patent US10323041B2, “Bicyclic derivatives, a process for their preparation and pharmaceutical compositions containing them” (LES LABORATOIRES SERVIER, priority 2015, dated 2019).

How the values were obtained:
Mcl-1 protein = Mcl-1 protein (Homo sapiens, UniProt Q07820); assay: Inhibition of Mcl-1 by the fluorescence polarisation technique; assay type: binding; details: Method 1 (not underlined) or Method 2 (underlined); underlining not visible; first value where cell prints two; read-out: IC50 (M) Mcl-1 FP
Mcl-1 protein, sequence (Q07820 whole entry): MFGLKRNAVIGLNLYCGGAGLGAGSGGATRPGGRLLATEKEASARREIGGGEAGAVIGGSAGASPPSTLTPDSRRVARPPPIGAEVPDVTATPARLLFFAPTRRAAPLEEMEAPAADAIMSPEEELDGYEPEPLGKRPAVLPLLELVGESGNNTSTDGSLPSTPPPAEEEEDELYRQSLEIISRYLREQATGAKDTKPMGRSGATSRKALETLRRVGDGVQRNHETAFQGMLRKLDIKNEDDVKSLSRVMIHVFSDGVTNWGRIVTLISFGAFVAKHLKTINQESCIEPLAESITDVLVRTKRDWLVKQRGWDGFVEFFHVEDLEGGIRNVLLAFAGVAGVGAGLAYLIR
Method in brief: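 Competitive FP with fluorescein-labelled peptide ligand, 5% DMSO, ~2 h at room temperature, 11-point curves, 4-parameter IC50. Method 1: 1 nM ligand, 5 nM Mcl-1 in HEPES pH 7.4 buffer; Method 2: 10 nM ligand, 10 nM Mcl-1 in phosphate pH 7.4 buffer, 50 μM unlabelled ligand as full-inhibition control.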

[1] = tested on: H929 multiple myeloma tumour line; assay: In vitro cytotoxicity, Microculture Tetrazolium Assay on H929 cells; assay type: cell-based; details: Homo sapiens, NCI-H929, exposed for 48 hours, cell viability, read-out: IC50 (M) MTT H929
Protocol: The cytotoxicity studies were carried out on the H929 multiple myeloma tumour line.
The cells are distributed onto microplates and exposed to the test compounds for 48 hours. The cell viability is then quantified by a colorimetric assay, the Microculture Tetrazolium Assay (Cancer Res., 1987, 47, 939-942).

cleaved form of PARP = assay: Quantification of the cleaved form of PARP in vivo; set-up: species or system mice (SCID strain); details: AMO-1 xenograft in SCID mice; cleaved PARP in tumour lysates, treated / control; intraveinous or oral routes
Protocol: The ability of the compounds of the invention to induce apoptosis, by measuring cleaved PARP levels, is evaluated in a xenograft model of AMO-1 multiple myeloma cells.
1.10^7 AMO-1 cells are grafted sub-cutaneously into immunosuppressed mice (SCID strain). 12 to 14 days after the graft, the animals are treated by intraveinous or oral routes with the various compounds. After treatment, the tumour masses are recovered and lysed, and the cleaved form of PARP is quantified in the tumour lysates.
The quantification is carried out using the “Meso Scale Discovery (MSD) ELISA platform” test, which specifically assays the cleaved form of PARP. It is expressed in the form of an activation factor corresponding to the ratio between the quantity of cleaved PARP in the treated mice divided by the quantity of cleaved PARP in the control mice.

IC50 (Mcl-1 protein) [M]	SMILES	IC50 [1] [M]	PARP fold (cleaved form of PARP) [fold]
1.4e-08	COc1ccccc1-c1nccc(COc2ccccc2CC(Oc2cc(F)cc3oc(-c4ccc(F)cc4)c(-c4ccc(OCCN5CCN(C)CC5)c(Cl)c4C)c23)C(=O)O)n1 [Example 67, (2R)-2-{[(3Sa)-3-{3-chloro-2-methyl-4-[2-(4-methylpiperazin-1-yl)ethoxy]phenyl}-6-fluoro-2-(4-fluorophenyl)-1-benzofuran-4-yl]oxy}-3-(2-{[2-(2-methoxyphenyl)pyrimidin-4-yl]methoxy}phenyl)propanoic acid]	8.36e-08	29.3
1.55e-08	COc1ccccc1-c1nccc(COc2ccccc2C[C@@H](Oc2ncnc3c2c(-c2ccc(OCCN4CCN(C)CC4)c(Cl)c2C)c(-c2ccc(F)cc2)n3C)C(=O)O)n1 [Example 72, (2R)-2-[5-[3-chloro-2-methyl-4-[2-(4-methylpiperazin-1-yl)ethoxy]phenyl]-6-(4-fluorophenyl)-7-methyl-pyrrolo[2,3-d]pyrimidin-4-yl]oxy-3-[2-[[2-(2-methoxyphenyl)pyrimidin-4-yl]methoxy]phenyl]propanoic acid]	3.2e-08	15.7
